According to patent US4442044A, “Process for preparing monoesters and diesters of N-alkyl substituted amino methyl phosphonic acid” (priority 1983, dated 1984):

Key:
Assay type in all cases: in vivo
Morningglory [1] = experiment: pre-emergent herbicidal activity, soil incorporation; conditions: Table III, 2 WAT, 11.2 kg/h
Description: (§1) A good grade of top soil is placed in aluminum pans and compacted to a depth of 0.95 to 1.27 cm. from the top of each pan. A predetermined number of seeds or vegetative propagules of each of several plant species are placed on top of the soil in each pan and then pressed down. Herbicidal compositions prepared as in the previous example are applied by admixture with or incorporation in the top layer of soil.
(§2) In this method, the soil required to cover the seeds and propagules is weighed and admixed with a herbicidal composition containing a known amount of the active ingredient (compound of this invention). The pans are then filled with the admixture and leveled. Watering is carried out by permitting the soil in the pans to absorb moisture through apertures in the pan bottoms. The seed and propagule containing pans are placed on a wet sand bench and maintained for approximately two weeks under ordinary conditions of sunlight and watering. At the end of this period, the number of emerged plants of each species is noted and compared to an untreated control.
(§3) The pre-emergent herbicidal activity index used below is based upon average percent control of each species as follows: […]

Johnsongrass [2] = experiment: as above; conditions: Table III, 2 WAT, 11.2 kg/h
Description: as §1, §2, §3

Smartweed [3] = experiment: as above; conditions: Table III, 2 WAT, 11.2 kg/h
Description: as §1, §2, §3

Velvetleaf [4] = experiment: as above; conditions: Table III, 2 WAT, 11.2 kg/h
Description: as §1, §2, §3

Cocklebur [5] = experiment: as above; conditions: Table III, 2 WAT, 11.2 kg/h
Description: as §1, §2, §3

Quackgrass [6] = experiment: as above; conditions: Table III, 2 WAT, 11.2 kg/h
Description: as §1, §2, §3

Downy Brome [7] = experiment: as above; conditions: Table III, 2 WAT, 11.2 kg/h
Description: as §1, §2, §3

Yellow Nutsedge [8] = experiment: as above; conditions: Table III, 2 WAT, 11.2 kg/h
Description: as §1, §2, §3

Canada Thistle [9] = experiment: as above; conditions: Table III, 2 WAT, 11.2 kg/h
Description: as §1, §2, §3

Barnyardgrass [10] = experiment: as above; conditions: Table III, 2 WAT, 11.2 kg/h
Description: as §1, §2, §3

Lambsquarters [11] = experiment: as above; conditions: Table III, 2 WAT, 11.2 kg/h
Description: as §1, §2, §3

Morningglory [12] = experiment: post-emergent herbicidal activity, greenhouse
Outline: (§4)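 Seeds or propagules sown in compacted top soil, grown 2–3 weeks in greenhouse, then sprayed with compound solution/suspension containing ~0.4% emulsifier at tabulated rates. Injury scored visually versus untreated controls at ~2 and 4 weeks after treatment, expressed as a herbicidal activity index.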

Johnsongrass [13] = experiment: post-emergent herbicidal activity, greenhouse; conditions: Table I, 4 WAT
Outline: as §4

Sorghum = experiment: post-emergent herbicidal activity, greenhouse; conditions: Table II
Outline: as §4

Hemp Sesbania = experiment: post-emergent herbicidal activity, greenhouse; conditions: Table II
Outline: as §4

Panicum Spp = experiment: post-emergent herbicidal activity, greenhouse; conditions: Table II
Outline: as §4

Smartweed [14] = experiment: post-emergent herbicidal activity, greenhouse
Outline: as §4

Velvetleaf [15] = experiment: post-emergent herbicidal activity, greenhouse
Outline: as §4

Cocklebur [16] = experiment: post-emergent herbicidal activity, greenhouse
Outline: as §4

Wheat = experiment: post-emergent herbicidal activity, greenhouse; conditions: Table II
Outline: as §4

Rice = experiment: post-emergent herbicidal activity, greenhouse; conditions: Table II
Outline: as §4

Quackgrass [17] = experiment: post-emergent herbicidal activity, greenhouse; conditions: Table I, 4 WAT
Outline: as §4

Downy Brome [18] = experiment: post-emergent herbicidal activity, greenhouse
Outline: as §4

Wild Buckwheat = experiment: post-emergent herbicidal activity, greenhouse; conditions: Table II
Outline: as §4

Yellow Nutsedge [19] = experiment: post-emergent herbicidal activity, greenhouse; conditions: Table I, 4 WAT
Outline: as §4

Canada Thistle [20] = experiment: post-emergent herbicidal activity, greenhouse; conditions: Table I, 4 WAT
Outline: as §4

Barnyardgrass [21] = experiment: post-emergent herbicidal activity, greenhouse
Outline: as §4

Lambsquarters [22] = experiment: post-emergent herbicidal activity, greenhouse
Outline: as §4

Soybean = experiment: post-emergent herbicidal activity, greenhouse; conditions: Table II
Outline: as §4

Sugar Beet = experiment: post-emergent herbicidal activity, greenhouse; conditions: Table II
Outline: as §4

[23] = Table II, 2** WAT, 0.056 kg/h, applied in 100 GPA THF
[24] = 2** WAT, 0.056 kg/h, applied in 100 GPA THF

CCOC(=O)CNCP(=O)(O)OC(C#N)CC (stereo not drawn) [Example 8, glycine, N-[[(1-cyanopropoxy)hydroxyphosphinyl]methyl],ethyl ester]
0 (1-24% control): pre-emergent herbicidal activity index (Morningglory [1]) | pre-emergent herbicidal activity index (Smartweed [3]) | pre-emergent herbicidal activity index (Velvetleaf [4]) | pre-emergent herbicidal activity index (Cocklebur [5]) | pre-emergent herbicidal activity index (Downy Brome [7]) | pre-emergent herbicidal activity index (Barnyardgrass [10]) | pre-emergent herbicidal activity index (Lambsquarters [11])
4 (100% control): post-emergent herbicidal activity index (Johnsongrass [13]; 11.2 kg/h) | post-emergent herbicidal activity index (Sorghum; 4 WAT, 1.12 kg/h) | post-emergent herbicidal activity index (Sorghum; 4 WAT, 5.6 kg/h) | post-emergent herbicidal activity index (Hemp Sesbania; 4 WAT, 5.6 kg/h) | post-emergent herbicidal activity index (Panicum Spp; 4 WAT, 1.12 kg/h) | post-emergent herbicidal activity index (Panicum Spp; 4 WAT, 5.6 kg/h) | post-emergent herbicidal activity index (Smartweed [14]; Table I, 4 WAT, 5.6 kg/h) | post-emergent herbicidal activity index (Smartweed [14]; Table I, 4 WAT, 11.2 kg/h) | post-emergent herbicidal activity index (Smartweed [14]; Table II, 4 WAT, 5.6 kg/h) | post-emergent herbicidal activity index (Velvetleaf [15]; Table I, 4 WAT, 11.2 kg/h) | post-emergent herbicidal activity index (Cocklebur [16]; Table I, 4 WAT, 11.2 kg/h) | post-emergent herbicidal activity index (Cocklebur [16]; Table II, 4 WAT, 5.6 kg/h) | post-emergent herbicidal activity index (Wheat; 4 WAT, 1.12 kg/h) | post-emergent herbicidal activity index (Wheat; 4 WAT, 5.6 kg/h) | post-emergent herbicidal activity index (Rice; 4 WAT, 5.6 kg/h) | post-emergent herbicidal activity index (Quackgrass [17]; 5.6 kg/h) | post-emergent herbicidal activity index (Quackgrass [17]; 11.2 kg/h) | post-emergent herbicidal activity index (Downy Brome [18]; Table I, 4 WAT, 11.2 kg/h) | post-emergent herbicidal activity index (Wild Buckwheat; 4 WAT, 5.6 kg/h) | post-emergent herbicidal activity index (Yellow Nutsedge [19]; 11.2 kg/h) | post-emergent herbicidal activity index (Canada Thistle [20]; 5.6 kg/h) | post-emergent herbicidal activity index (Canada Thistle [20]; 11.2 kg/h) | post-emergent herbicidal activity index (Barnyardgrass [21]; Table I, 4 WAT, 11.2 kg/h) | post-emergent herbicidal activity index (Barnyardgrass [21]; Table II, 4 WAT, 1.12 kg/h) | post-emergent herbicidal activity index (Barnyardgrass [21]; Table II, 4 WAT, 5.6 kg/h) | post-emergent herbicidal activity index (Lambsquarters [22]; Table I, 4 WAT, 5.6 kg/h) | post-emergent herbicidal activity index (Lambsquarters [22]; Table I, 4 WAT, 11.2 kg/h) | post-emergent herbicidal activity index (Lambsquarters [22]; Table II, 4 WAT, 5.6 kg/h) | post-emergent herbicidal activity index (Soybean; 4 WAT, 5.6 kg/h) | post-emergent herbicidal activity index (Sugar Beet; 4 WAT, 1.12 kg/h) | post-emergent herbicidal activity index (Sugar Beet; 4 WAT, 5.6 kg/h)
0 (0-24% control): post-emergent herbicidal activity index (Morningglory [12]; [23]) | post-emergent herbicidal activity index (Sorghum; [24]) | post-emergent herbicidal activity index (Hemp Sesbania; [24]) | post-emergent herbicidal activity index (Panicum Spp; [24]) | post-emergent herbicidal activity index (Smartweed [14]; [23]) | post-emergent herbicidal activity index (Velvetleaf [15]; [23]) | post-emergent herbicidal activity index (Cocklebur [16]; [23]) | post-emergent herbicidal activity index (Rice; [24]) | post-emergent herbicidal activity index (Downy Brome [18]; [23]) | post-emergent herbicidal activity index (Wild Buckwheat; [24]) | post-emergent herbicidal activity index (Lambsquarters [22]; [23]) | post-emergent herbicidal activity index (Soybean; [24]) | post-emergent herbicidal activity index (Sugar Beet; [24])
2 (50-74% control): pre-emergent herbicidal activity index (Johnsongrass [2]) | pre-emergent herbicidal activity index (Quackgrass [6]) | post-emergent herbicidal activity index (Morningglory [12]; Table I, 4 WAT, 5.6 kg/h) | post-emergent herbicidal activity index (Hemp Sesbania; 4 WAT, 1.12 kg/h)
1 (25-49% control): pre-emergent herbicidal activity index (Yellow Nutsedge [8]) | post-emergent herbicidal activity index (Wheat; [24]) | post-emergent herbicidal activity index (Barnyardgrass [21]; [23])
3 (75-99% control): post-emergent herbicidal activity index (Morningglory [12]; Table I, 4 WAT, 11.2 kg/h) | post-emergent herbicidal activity index (Morningglory [12]; Table II, 4 WAT, 1.12 kg/h) | post-emergent herbicidal activity index (Morningglory [12]; Table II, 4 WAT, 5.6 kg/h) | post-emergent herbicidal activity index (Johnsongrass [13]; 5.6 kg/h) | post-emergent herbicidal activity index (Smartweed [14]; Table II, 4 WAT, 1.12 kg/h) | post-emergent herbicidal activity index (Velvetleaf [15]; Table I, 4 WAT, 5.6 kg/h) | post-emergent herbicidal activity index (Velvetleaf [15]; Table II, 4 WAT, 1.12 kg/h) | post-emergent herbicidal activity index (Velvetleaf [15]; Table II, 4 WAT, 5.6 kg/h) | post-emergent herbicidal activity index (Cocklebur [16]; Table I, 4 WAT, 5.6 kg/h) | post-emergent herbicidal activity index (Cocklebur [16]; Table II, 4 WAT, 1.12 kg/h) | post-emergent herbicidal activity index (Rice; 4 WAT, 1.12 kg/h) | post-emergent herbicidal activity index (Downy Brome [18]; Table I, 4 WAT, 5.6 kg/h) | post-emergent herbicidal activity index (Downy Brome [18]; Table II, 4 WAT, 1.12 kg/h) | post-emergent herbicidal activity index (Downy Brome [18]; Table II, 4 WAT, 5.6 kg/h) | post-emergent herbicidal activity index (Wild Buckwheat; 4 WAT, 1.12 kg/h) | post-emergent herbicidal activity index (Yellow Nutsedge [19]; 5.6 kg/h) | post-emergent herbicidal activity index (Barnyardgrass [21]; Table I, 4 WAT, 5.6 kg/h) | post-emergent herbicidal activity index (Lambsquarters [22]; Table II, 4 WAT, 1.12 kg/h) | post-emergent herbicidal activity index (Soybean; 4 WAT, 1.12 kg/h)
3 (75-100% control): pre-emergent herbicidal activity index (Canada Thistle [9])
